Laboratory results as given in BindingDB's records for doi:10.1124/jpet.102.040394 (Merck Sharp and Dohme Research Laboratories, 2002).

Columns and labels:
[1] = target: Transient receptor potential cation channel subfamily V member 1 (Homo sapiens, UniProt Q8NER1)
[2] = target: Transient receptor potential cation channel subfamily V member 1 (Rattus norvegicus, UniProt O35433)
Transient receptor potential cation channel subfamily V member 1 (Rattus norvegicus, UniProt O35433), sequence (O35433 whole entry): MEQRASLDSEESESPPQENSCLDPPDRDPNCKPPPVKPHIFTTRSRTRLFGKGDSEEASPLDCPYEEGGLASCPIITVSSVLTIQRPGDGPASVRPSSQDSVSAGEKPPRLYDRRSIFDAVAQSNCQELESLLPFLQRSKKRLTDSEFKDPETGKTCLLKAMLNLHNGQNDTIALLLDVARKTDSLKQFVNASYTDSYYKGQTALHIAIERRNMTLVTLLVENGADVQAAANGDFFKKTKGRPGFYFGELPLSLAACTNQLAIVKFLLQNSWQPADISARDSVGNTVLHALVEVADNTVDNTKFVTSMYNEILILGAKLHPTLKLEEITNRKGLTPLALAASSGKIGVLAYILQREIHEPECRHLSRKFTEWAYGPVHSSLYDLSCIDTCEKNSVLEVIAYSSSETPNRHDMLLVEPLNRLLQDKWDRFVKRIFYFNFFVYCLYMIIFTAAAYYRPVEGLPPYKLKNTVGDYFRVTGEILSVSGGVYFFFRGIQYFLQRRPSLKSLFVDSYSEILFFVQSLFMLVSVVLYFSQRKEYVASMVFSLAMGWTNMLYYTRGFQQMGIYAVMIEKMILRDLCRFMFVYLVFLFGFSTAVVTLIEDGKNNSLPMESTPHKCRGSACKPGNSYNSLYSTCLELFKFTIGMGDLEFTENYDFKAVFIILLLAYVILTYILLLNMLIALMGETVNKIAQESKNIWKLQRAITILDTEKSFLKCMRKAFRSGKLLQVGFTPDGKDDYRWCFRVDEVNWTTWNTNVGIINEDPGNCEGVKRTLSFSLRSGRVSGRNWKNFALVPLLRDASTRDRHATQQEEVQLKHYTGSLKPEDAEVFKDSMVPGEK

Transient receptor potential cation channel subfamily V member 1 (Homo sapiens, UniProt Q8NER1), sequence (Q8NER1 whole entry): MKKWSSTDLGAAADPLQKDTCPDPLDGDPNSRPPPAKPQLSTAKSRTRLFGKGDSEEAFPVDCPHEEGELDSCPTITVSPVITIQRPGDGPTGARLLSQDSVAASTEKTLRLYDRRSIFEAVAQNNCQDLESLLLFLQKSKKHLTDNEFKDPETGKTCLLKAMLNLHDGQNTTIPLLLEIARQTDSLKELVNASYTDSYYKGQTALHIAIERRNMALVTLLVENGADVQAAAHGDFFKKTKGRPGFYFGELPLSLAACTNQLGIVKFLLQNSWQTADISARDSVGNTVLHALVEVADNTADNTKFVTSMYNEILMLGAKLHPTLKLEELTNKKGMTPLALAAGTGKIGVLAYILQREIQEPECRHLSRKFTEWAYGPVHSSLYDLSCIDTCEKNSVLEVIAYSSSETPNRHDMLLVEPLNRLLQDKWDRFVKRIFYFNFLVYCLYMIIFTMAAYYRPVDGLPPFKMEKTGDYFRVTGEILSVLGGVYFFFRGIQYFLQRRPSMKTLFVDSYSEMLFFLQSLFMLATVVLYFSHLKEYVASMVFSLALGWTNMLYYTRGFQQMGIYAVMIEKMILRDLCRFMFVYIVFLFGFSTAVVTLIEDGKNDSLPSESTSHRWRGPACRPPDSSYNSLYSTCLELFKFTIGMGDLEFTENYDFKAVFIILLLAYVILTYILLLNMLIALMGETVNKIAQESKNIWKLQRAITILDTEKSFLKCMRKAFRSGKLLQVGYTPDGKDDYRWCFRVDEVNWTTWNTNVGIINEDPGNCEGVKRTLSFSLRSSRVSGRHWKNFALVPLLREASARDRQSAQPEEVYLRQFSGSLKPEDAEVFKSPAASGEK

Row | SMILES | Ki [1] [nM] | Ki [2] [nM]
1 | C=C(C)[C@]12C[C@@H](C)[C@@]34O[C@](Cc5ccccc5)(O[C@@H]1[C@@H]3C(COC(=O)Cc1cc(I)c(O)c(OC)c1)=CC[C@@H]1C(=O)C(C)=C[C@H]14)O2 [5'-IODORESINIFERATOXIN] | 6.7 | 0.39
2 | Oc1cc2c(cc1O)CN(C(=S)NCCc1ccc(Cl)cc1)CCC2 [N-[2-(4-chlorophenyl)ethyl]-7,8-dihydroxy-2,3,4,5-tetrahydro-1H-2-benzazepine-2-carbothioamide] |  | 4300
